For one data set, the target named is T1, BRD9 (Homo sapiens, UniProt Q9H8M2).
T1 construct: WB analysis showing BRD9 protein levels following 48‐hours treatments with compounds 2−8; endogenous in cells; host or cells: U937 (ATCC)
T1 sequence (Q9H8M2 1-597): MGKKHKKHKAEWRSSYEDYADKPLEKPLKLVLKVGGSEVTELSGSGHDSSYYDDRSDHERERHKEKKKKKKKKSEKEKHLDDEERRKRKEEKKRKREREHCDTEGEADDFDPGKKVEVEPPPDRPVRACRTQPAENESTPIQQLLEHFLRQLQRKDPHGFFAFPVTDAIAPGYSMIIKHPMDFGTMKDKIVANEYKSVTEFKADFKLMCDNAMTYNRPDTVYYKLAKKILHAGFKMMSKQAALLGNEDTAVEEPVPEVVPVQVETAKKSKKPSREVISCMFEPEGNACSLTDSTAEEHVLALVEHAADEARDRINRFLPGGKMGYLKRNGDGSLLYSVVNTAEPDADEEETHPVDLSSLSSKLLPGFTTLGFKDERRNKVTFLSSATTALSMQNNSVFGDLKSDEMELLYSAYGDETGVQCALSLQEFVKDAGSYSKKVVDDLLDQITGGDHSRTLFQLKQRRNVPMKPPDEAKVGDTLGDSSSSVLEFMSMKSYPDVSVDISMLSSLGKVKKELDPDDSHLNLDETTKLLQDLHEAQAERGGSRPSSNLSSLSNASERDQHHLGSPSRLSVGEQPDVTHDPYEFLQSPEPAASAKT
As to the kind of experiment: Western blotting of BRD9 protein levels in U937 cells. The format is cell-based. Conditions: 48 hours treatment, different concentrations, western blot. The procedure:
Cells have been authenticated by STR profiling.
Western blot was performed according to the previous protocol.^[ [71], [72] ^] U937 AML cells were pelleted and then lysed in RIPA buffer (1% Triton X‐100, 0.1% SDS, 150 mM NaCl, 1 mM EDTA pH 8, 10 mM Tris‐HCl pH 8) added with 1% protease inhibitor cocktail. The resulting lysate was subjected to centrifugation for 15 minutes at 4 °C. […] The protein signal was visualized by enhanced chemiluminescence method (ECL) through the Bio‐Rad Chemidoc machine. ImageJ software was used for densitometric analysis.

A further data set deals with U937 cells. As to the kind of experiment: CCK8 viability assay in U937 cells. It counts as cell-based, human. To be noted: CCK8, 48 hours treatment. The procedure:
The AML U937 cell line (ATCC) was grown in Roswell Park Memorial Institute (RPMI) 1640 Medium with the addition of 10% fetal bovine serum (FBS), 1% L‐glutamine, and 1% antibiotics (100 U/mL penicillin, 100 µg/mL streptomycin, and 250 ng/mL amphotericin‐B). Cells have been authenticated by STR profiling.
CCK8 was purchased from Elabscience and used according to manufacturer instructions, briefly: 100 µL of cell suspension was added to each well using a 96‐well microplate. Cells were then incubated at 37 °C, in a 5% CO2 incubator for 24 hours. Compounds were added to the cells and incubated for an additional 48 hours at 37 °C. Next, 10 µL of CCK‐8 Buffer was added to each well, and cells were incubated again for 4 hours. Next, 450 nm absorbance was measured using a TECAN microplate reader.
(In general: Tetrazolium assays rely on reduction of a dye to a coloured formazan, in cell work by metabolically active cells.)

The target in data set [1] is T2, BRD9 (BD1) (Homo sapiens, UniProt Q9H8M2).
T2 construct: BSP‐32519
T2 sequence (Q9H8M2 136-240 limits assumed): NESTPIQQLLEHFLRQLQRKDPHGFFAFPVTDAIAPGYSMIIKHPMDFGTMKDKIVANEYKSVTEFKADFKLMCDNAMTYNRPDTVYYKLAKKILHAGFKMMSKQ
As to the kind of experiment: AlphaScreen assay, BRD9 (BD1) Inhibitor Screening Assay Kit. It counts as binding. The procedure:
The evaluation of the interaction between synthesized compounds and BRD9 was conducted using AlphaScreen Technology using an Enspire microplate analyzer (Perkin Elmer)^[ [70] ^] and the BRD9 (BD1) Inhibitor Screening Assay Kit (BSP‐32519) as reported by Colarusso et al.^[ [38], [39] ^] IC50 values were calculated by GraphPad Prism10 software.
For orientation: Bead proximity is the source of the signal in Alpha formats.

A short description of a further data set: Human plasma stability. The format is in vitro ADME. To be noted: incubation up to 120 minutes, 37 °C, read-out: compound recovery after incubation with human plasma. The procedure:
The plasma stability of compounds 2 and 9 was evaluated. Briefly, the plasma was equilibrated at 37 °C, and biotransformation was initiated by adding the compound solution and mixing. At each specified time point (0, 60, and 120 minutes), test compounds were extracted into 200 µL ice‐cold methanol to stop degradation. Tolbutamide was added during the quenching phase. Finally, the concentration of the test compound was monitored by LC‐MS. The percentage of the test compound remaining at each individual time point was reported. The results are reported as mean ± SD from three independent experiments. Procaine and procainamide were used as controls.

Data set [2] in a line: Microsomal stability in human liver microsomes (HLMs). It counts as in vitro ADME. Conditions: LC-MS/MS analysis. As for the experimental part: In our assay we followed the loss of the test compounds over time under CYP‐mediated metabolic pathways. The extent of hepatic metabolism allowed us the determination of different pharmacokinetic parameters such as in vitro t1/2, CLint, in vitro and CLint, in vivo. In vitro t1/2 and CLint, in vitro of test compounds after liver microsomes incubation were calculated according to “well‐stirred” model. In the “well‐stirred” model, the liver is represented by a single compartment, where the unbound concentration of a drug leaving the liver is in equilibrium with the intracellular unbound concentration in the hepatocytes.^[ [53] ^] Predicted CLint, invivo values were determined using human PBSF.^[ [54] ^]
The microsomal stability of compounds 2 and 9 was assessed according to the previously described protocol.^[ [73] ^] […] The supernatants were collected and analyzed by LC‐MS/MS. The extent of metabolism is quantified as a percentage of the parent compound turnover. […] In vitro half‐lives (t1/2) were calculated using the expression t1/2 = 0.693/b, where b is the slope found in the linear fit of the natural logarithm of the fraction remaining of the parent compound versus incubation time. Microsomal intrinsic clearance was calculated as CLint , in vitro = (1000) × (0.693/t1/2)/0.5. […]
In general terms: Liver microsomes are vesicles of endoplasmic reticulum, rich in cytochrome P450 enzymes.

For data set [3], the target named is T2, BRD9 (BD1). More on the design: method as in PMID 34823196. Conditions: previously disclosed; read-out: IC50, affinity for BRD9; cited from earlier work.

By IC50 is commonly meant the concentration that gives 50% inhibition.

Where two headings read alike, the source gives them in different places. Where only a bound is given, the exact number is not on record here.

As to `CCc1nnc2c(Nc3cccc(NC(=O)CCCCCCOCCOCC(=O)Nc4cccc5c4C(=O)N(C4CCC(=O)NC4=O)C5=O)c3)nc3ccccc3n12` (centres unmarked) [compound 8], the “BRD9 protein levels (degradation)” value on BRD9 is “no effect was observed”. For the same compound, in the data set with U937 cells, the U937 cell viability result is recorded as “did not observe variation in cell viability”.
Take `CCc1nnc2c(Nc3cccc(NC(=O)CCCCCCOCCOCC(=O)N[C@H](C(=O)N4C[C@H](O)C[C@H]4C(=O)NCc4ccc(-c5scnc5C)cc4)C(C)(C)C)c3)nc3ccccc3n12` [compound 2]: the “residual binding of histone H4” value on BRD9 (BD1) [1] (10 µM ligand concentration) turned out to be 21.6 ± 0.3%. Further, the IC50 on BRD9 (BD1) [1] (AlphaScreen, read-out: IC50, BRD9 binding) was determined as 2.97 ± 0.25 µM. For the same compound, the U937 cell viability result in the data set with U937 cells is “strong reduction of cell viability”. Moreover, the recovery at 120 min in the data set “Human plasma stability” was at least 90%. Besides, in data set [2], the “primary metabolites after incubation with HLMs” value is “dealkylation reactions”.
Consider `CCc1nnc2c(Nc3cccc(NC(=O)CCOCCOCCNc4cccc5c4C(=O)N(C4CCC(=O)NC4=O)C5=O)c3)nc3ccccc3n12` (centres unmarked) [compound 6], for which, at BRD9, the “BRD9 protein levels (degradation)” value is given as “no effect was observed”. Further, the U937 cell viability result in the data set on U937 cells is “did not observe variation in cell viability”.
For `CCc1nnc2c(Nc3cccc(NC(=O)CCCCCCNc4cccc5c4C(=O)N(C4CCC(=O)NC4=O)C5=O)c3)nc3ccccc3n12` (centres unmarked) [compound 4], the “BRD9 protein levels (degradation)” value at BRD9 was “no effect was observed”. Moreover, in the data set with U937 cells, the U937 cell viability result is “did not observe variation in cell viability”.
For `CCc1nnc2c(Nc3cccc(NC(C)=O)c3)nc3ccccc3n12` [compound 1], at BRD9, the “BRD9 protein levels (degradation)” value is recorded as “only a slight reduction in BRD9 protein levels”. In the data set with U937 cells, the U937 cell viability result is “minimally affected”. For the same compound, at BRD9 (BD1) [3], the IC50 is 4.2 ± 1.92 µM.
For the compound `CCc1nnc2c(Nc3cccc(NC(=O)CCOCCNc4cccc5c4C(=O)N(C4CCC(=O)NC4=O)C5=O)c3)nc3ccccc3n12` (centres unmarked) [compound 5], the U937 cell viability result in the data set with U937 cells is on record as “strong reduction of cell viability”.
As for `CCc1nnc2c(Nc3cccc(NC(=O)CCOCCOCCOCCNc4cccc5c4C(=O)N(C4CCC(=O)NC4=O)C5=O)c3)nc3ccccc3n12` (centres unmarked) [compound 7], on BRD9, the “BRD9 protein levels (degradation)” value was “no effect was observed”. Also, the U937 cell viability result in the data set on U937 cells was “did not observe variation in cell viability”.

(Values after paper PMC12172596, “Unveiling New Triazoloquinoxaline‐Based PROTACs Designed for the Selective Degradation of the ncBAF Chromatin Remodeling Subunit BRD9” (Chemistry (Weinheim an Der Bergstrasse, Germany), 2025).)
